# Test results as given in patent US12421228B2 (Mirati Therapeutics, Inc., priority 2019, dated 2025).
# How the values were obtained:
# [1] = system: PRC2-mediated histone H3 methylation in Pfeiffer cells (EZH2 A677G); test: Tri-Methyl Histone H3 (Lys 27) sandwich ELISA in Pfeiffer cells; assay type: cell-based; details: Homo sapiens, 96 hours incubation, H3K27me3 ELISA, read-out: IC50 (nM), Inhibition of EZH2-mediated Histone H3 Trimethylation
# From the text: The Pfeiffer cell line was established from a […] from a patient having metastatic diffuse large B-cell lymphoma (DLBCL). This cell line expresses a mutant form of the EZH2 enzyme (A677G) that results in enhanced EZH2 activity leading to increased methylation of histone H3 Lys27. Increased trimethylation of histone H3 Lys27 is believed to be implicated in tumorgenesis and poor clinical prognosis in lymphomas (McCabe et al., (2012) Nature 492:108-112).
# Inhibition of PRC2-mediated histone H3 methylation by compounds of Formula (I) was measured by ELISA using a Tri-Methyl Histone H3 (Lys 27) Sandwich ELISA Kit (Cell Signaling Tech #7866C) in accordance with the manufacturer's instructions. Briefly, Pfeiffer cells were cultured in RPMI medium supplemented with 10% fetal bovine serum and 1% penicillin and 1% streptomycin in 96 well culture plates at 37° C. to a density of 8000 cells/90 μl/well and the cells were harvested. A series of 3-fold serial dilutions of each test compound of Formula (I) were prepared in RPMI medium and added to the cells at final concentrations ranging from […] to 0.15 nM. The plates were incubated at 37° C. for 96 hours.
# After incubation, the cells were pelleted by centrifugation in a pre-cooled 4° C. rotor at 1,100 rpm for 10 min and the supernatant was removed by aspiration. The cell pellet was resuspended in 55 μl of Lysis Buffer (0.4M HCl) and incubated on ice with periodic shaking for 30 minutes. The lysed cells were subjected to centrifugation at 4,200 rpm for 10 min at 4° C. and the supernatant containing acid-soluble proteins was collected and the remainder discarded. The acid-soluble proteins were brought to a neutral pH by the addition of 20 μl of Neutralization Buffer (1 M Sodium phosphate, dibasic (pH 12.5), 2.5 mM DTT and 1 mM PMSF) and the neutralized lysates were analyzed by ELISA.
# A 65 μl aliquot of each cell lysate was added to a well of a microwell strip, the microwells were sealed using tape and incubated either at 37° C. for two hours or at 4° C. overnight. After incubation, the tape was removed at the microwells were washed four times using 200 μl of 1× Wash Buffer. To each washed microwell, a 100 μl aliquot of an anti-trimethyl histone H3 Lys27 Detection Antibody solution was added and the microwells were incubated at 37° C. for one hour. The Detection Antibody solution was removed by aspiration and the wells were washed four times each using 200 μl of 1× Wash Buffer.
# A 100 μl aliquot of an HRP-linked secondary antibody was added to each well, the wells were sealed with tape and incubated at 37° C. for 30 min. The HRP-linked secondary antibody solution was removed by aspiration and the wells were washed four times using 200 μl of 1× Wash Buffer. A 100 μl aliquot of a TMB substrate was added to each well, the wells were sealed with tape and incubated at 37° C. for 10 min or 25° C. for 30 min. The reaction was stopped by the addition of 100 μl aliquot of a STOP solution and the plate was shaken briefly. The degree of histone H3 trimethylation was determined using a spectrophotometric readout by measuring the absorbance at 450 nm and then calculating the amount of trimethylated histone H3. A=≤100 nM; B=>100 nM−≤500 nM; C=>500 nM and N.D.=not determined.
# [2] = target: purified human, His-tagged PRC2 complex (Homo sapiens (Human), UniProt O75530); test: Hot Spot HMT assay, inhibition of PRC2 enzymatic activity; assay type: biochemical; details: 10 nM PRC2 complex, 0.05 mg/ml core histone H3, 1 μM 3H-SAM, 1 hr at 30° C.; read-out: IC50, Inhibition of PRC2-mediated Enzymatic Activity
# Protocol: Ten-point dose-response curves for compounds of the present invention were determined using a Hot Spot HMT assay (Reaction Biology Corp; see Horiuchi et al., Assay Drug Dev Technol. (2013) 4: 227-236 doi: 10.1089/adt.2012.480). The assay uses purified human, His-tagged PRC2 complex, including N-terminal His-tagged EZH2 enzyme, N-terminal Flag-tagged embryonic ectoderm development protein (EED), N-terminal His-tagged suppressor of zeste 12 (SUZ12), N-terminal His-tagged AEBP2, and N-terminal His-tagged RbAp48. In this assay, the transfer of the tritiated methyl group from radiolabeled S-adenosyl methionine (SAM) to purified core histone protein by EZH2 is quantitated after filtration to determine the activity of the core PRC2 complex in the presence and absence of compound.
# Briefly, compounds of the present invention were solubilized in DMSO and a series of 10, three-fold serial dilutions were made for each compound in 15% DMSO. The initial starting concentration for the serial dilutions of each compound was 1.0 μM. Control samples lacking compound, EZH2 enzyme or various reaction components also were prepared and processed in parallel with compound test samples. SAH (S-(5-adenosyl)-L-homocysteine) was used as a positive control for assay validation.
# An aliquot of each serial dilution of test compound was added to deep 384 well plate using Acoustic Technology instrument (Echo 550, LabCyte) containing reaction buffer (50 mM Tris-HCl (pH 8)), 0.01% Brij35, 1 mM EDTA, 1 mM DTT, 1 mM PMSF and 1% DMSO), 10 nM purified PRC2 complex and 0.05 mg/ml core histone H3 in a 5 μl volume. The reaction was mixed gently and then pre-incubated for 20 min at 30° C. The enzymatic reaction was initiated by adding 1 μM S-Adenosyl-L-[methyl-^3H]methionine and incubated for 1 hr at 30° C. After 1 hr, the reaction product was detected using a filter binding method and the amount of tritiated H3 core histone was quantitated using a scintillation counter. The IC50 value for each compound was determined from each 10-point dose-response curve using GraphPad Prism software and the results for compounds of present invention, including compounds of Formula (I) and Formula (II) are shown in Table 6. Key: A=<100 nM; B=>100 nM−<250 nM; and C=>250 nM.
# [3] = system: Karpas 422 cells (EZH2 Y641N); test: Karpas 422 cell viability (Cell Titre Glo); assay type: cell-based; details: Homo sapiens, CTG viability, Day 4, Day 7 or Day 11 (time point not given), read-out: IC50 (nM), Inhibiting Proliferation of Cells Expressing an Activating Mutant Form of EZH2
# Protocol: Karpas 422 cell line is a human B cell non-Hodgkin's lymphoma cell line established from a patient having DLBCL. This EZH2 heterozygotic cell line expresses a mutant form of EZH2 enzyme (Y641N) that increases histone H3 methylation and this mutation has been implicated in the tumorgenesis of lymphomas, such as DLBCL.
# Karpas 422 cells (PHE cat no., 06101702) were cultured in RPMI medium supplemented with 20% fetal bovine serum and 1% penicillin/1% streptomycin and plated at a density of 1000 cells/90 μl/well in 96 well white assay plates. A dose response curve for compounds of the present invention was determined by adding a 10 μl aliquot of stock solutions of varying concentrations of compounds to the same medium in each well, over a concentration range of 10 μM using 3-fold dilutions to a final concentration of 1.5 nM. The plates were incubated at 37° C. for predetermined time periods, Day 4, Day 7, or Day 11, and the viability of the cells was measured using a CTG assay kit (Cell Titre Glo; Promega cat. no G7573) on Day 4 and Day 7 in accordance with the manufacturer's instructions.
# For the viability assay for the Day 11 plates, the plates were subjected to centrifugation at 1100 rpm for five minutes on Day 7 and the supernatant was removed by aspiration. The cells were resuspended in 90 μl aliquot of the appropriate growth medium lacking the compound followed by addition of 10 μl of a 10× stock of the same compound at the same concentration. The viability of the Day 11 cells was measured using the CTG assay kit described above in accordance with the manufacturer's instructions. The IC50 values for each compound at each predetermined time point were calculated using Graph pad PRISM software and the results are shown in Table 8. A=≤250 nM; B=[…]−≤500 nM; C=>500 nM and N.D.=not determined.
# Chain of purified human, His-tagged PRC2 complex (Q15910 whole entry): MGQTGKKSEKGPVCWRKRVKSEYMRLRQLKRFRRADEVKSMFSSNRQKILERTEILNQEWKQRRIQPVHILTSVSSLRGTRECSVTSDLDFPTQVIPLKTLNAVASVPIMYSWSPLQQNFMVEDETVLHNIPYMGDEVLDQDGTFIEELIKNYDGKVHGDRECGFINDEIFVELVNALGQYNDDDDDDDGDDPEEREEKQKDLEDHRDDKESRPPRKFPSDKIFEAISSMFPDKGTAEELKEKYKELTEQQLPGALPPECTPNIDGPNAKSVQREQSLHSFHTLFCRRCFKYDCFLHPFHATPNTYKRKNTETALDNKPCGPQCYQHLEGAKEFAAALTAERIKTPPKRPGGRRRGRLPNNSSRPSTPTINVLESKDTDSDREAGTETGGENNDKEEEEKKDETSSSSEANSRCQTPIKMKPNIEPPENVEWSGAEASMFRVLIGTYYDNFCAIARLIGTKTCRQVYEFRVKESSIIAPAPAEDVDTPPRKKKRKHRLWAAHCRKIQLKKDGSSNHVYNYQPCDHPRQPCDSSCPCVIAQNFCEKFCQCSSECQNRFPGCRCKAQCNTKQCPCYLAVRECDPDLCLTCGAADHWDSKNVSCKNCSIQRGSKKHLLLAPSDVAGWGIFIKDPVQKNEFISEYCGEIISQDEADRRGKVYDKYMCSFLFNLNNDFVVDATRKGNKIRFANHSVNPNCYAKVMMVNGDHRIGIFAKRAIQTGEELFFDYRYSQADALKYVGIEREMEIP
# Chain of purified human, His-tagged PRC2 complex (O75530 whole entry): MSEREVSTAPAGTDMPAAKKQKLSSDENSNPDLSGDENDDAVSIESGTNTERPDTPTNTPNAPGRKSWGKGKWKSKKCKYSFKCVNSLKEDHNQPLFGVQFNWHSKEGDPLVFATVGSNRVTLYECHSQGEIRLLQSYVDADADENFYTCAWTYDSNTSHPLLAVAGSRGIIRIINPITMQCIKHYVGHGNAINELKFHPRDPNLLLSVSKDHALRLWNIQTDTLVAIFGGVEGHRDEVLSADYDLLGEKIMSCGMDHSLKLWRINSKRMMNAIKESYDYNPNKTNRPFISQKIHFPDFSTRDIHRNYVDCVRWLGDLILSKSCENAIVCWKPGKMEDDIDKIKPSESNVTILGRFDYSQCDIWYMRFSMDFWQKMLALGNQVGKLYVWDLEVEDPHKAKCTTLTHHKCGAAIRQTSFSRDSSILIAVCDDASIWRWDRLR
# Chain of purified human, His-tagged PRC2 complex (Q15022 whole entry partner): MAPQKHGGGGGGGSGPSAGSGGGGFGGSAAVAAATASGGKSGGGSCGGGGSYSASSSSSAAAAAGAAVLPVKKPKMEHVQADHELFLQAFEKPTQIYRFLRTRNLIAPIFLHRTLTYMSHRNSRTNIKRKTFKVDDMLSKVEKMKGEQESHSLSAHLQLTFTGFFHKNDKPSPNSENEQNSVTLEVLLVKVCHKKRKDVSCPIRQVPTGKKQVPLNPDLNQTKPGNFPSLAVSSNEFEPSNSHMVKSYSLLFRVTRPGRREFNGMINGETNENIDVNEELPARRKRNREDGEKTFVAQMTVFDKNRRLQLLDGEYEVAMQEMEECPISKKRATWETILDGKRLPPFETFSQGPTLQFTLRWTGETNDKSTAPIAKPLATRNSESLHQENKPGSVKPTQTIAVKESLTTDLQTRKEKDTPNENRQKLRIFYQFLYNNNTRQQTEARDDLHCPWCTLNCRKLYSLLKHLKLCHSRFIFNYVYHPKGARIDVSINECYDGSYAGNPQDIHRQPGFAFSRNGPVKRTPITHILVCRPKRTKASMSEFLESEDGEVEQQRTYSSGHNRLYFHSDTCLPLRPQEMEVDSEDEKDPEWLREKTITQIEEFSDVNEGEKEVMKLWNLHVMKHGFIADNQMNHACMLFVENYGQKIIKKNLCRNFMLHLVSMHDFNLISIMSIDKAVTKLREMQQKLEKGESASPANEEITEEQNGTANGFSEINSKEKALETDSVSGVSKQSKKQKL
# Chain of purified human, His-tagged PRC2 complex (Q6ZN18 whole entry partner): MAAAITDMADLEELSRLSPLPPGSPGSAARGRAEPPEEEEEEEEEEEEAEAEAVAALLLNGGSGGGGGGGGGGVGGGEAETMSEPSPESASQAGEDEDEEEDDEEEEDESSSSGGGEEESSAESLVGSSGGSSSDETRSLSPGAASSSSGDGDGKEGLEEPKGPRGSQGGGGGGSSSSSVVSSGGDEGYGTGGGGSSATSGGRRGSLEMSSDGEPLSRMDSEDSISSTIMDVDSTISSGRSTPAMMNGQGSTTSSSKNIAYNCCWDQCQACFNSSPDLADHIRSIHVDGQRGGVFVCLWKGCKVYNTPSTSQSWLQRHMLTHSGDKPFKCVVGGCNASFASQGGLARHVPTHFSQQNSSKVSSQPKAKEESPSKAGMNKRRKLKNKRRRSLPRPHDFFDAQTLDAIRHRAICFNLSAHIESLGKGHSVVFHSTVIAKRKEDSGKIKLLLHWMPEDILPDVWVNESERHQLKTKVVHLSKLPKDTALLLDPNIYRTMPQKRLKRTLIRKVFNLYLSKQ
# Chain of purified human, His-tagged PRC2 complex (Q09028 whole entry partner): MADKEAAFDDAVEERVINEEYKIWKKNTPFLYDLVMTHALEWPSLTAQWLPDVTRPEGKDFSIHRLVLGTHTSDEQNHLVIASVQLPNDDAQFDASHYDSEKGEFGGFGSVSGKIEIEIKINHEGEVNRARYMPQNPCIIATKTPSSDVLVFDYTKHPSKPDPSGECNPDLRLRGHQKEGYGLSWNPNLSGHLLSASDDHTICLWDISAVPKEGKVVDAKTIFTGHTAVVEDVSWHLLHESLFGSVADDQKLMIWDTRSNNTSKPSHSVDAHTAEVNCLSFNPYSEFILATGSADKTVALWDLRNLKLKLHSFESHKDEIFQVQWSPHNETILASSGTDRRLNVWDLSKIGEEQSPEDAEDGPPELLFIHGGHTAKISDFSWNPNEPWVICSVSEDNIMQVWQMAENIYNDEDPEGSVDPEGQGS
IC50 [1] [nM],IC50 [2] [nM],IC50 [3] [nM],SMILES
≤ 100,< 100,≤ 250,NS(=O)(=O)c1ccc(-c2cnc(NCc3c(F)ccc4c3CCO4)c3cnncc23)cc1 [Example 1]
≤ 100,< 100,≤ 250,Fc1ccc2c(c1CNc1ncc(-c3ccc(CN4CCCC4)cc3)c3cnncc13)CCO2 [Example 2]
≤ 100,< 100,≤ 250,Cc1cc(S(C)(=O)=O)ccc1-c1cnc(NCc2c(F)ccc3c2CCO3)c2cnncc12 [Example 3]
≤ 100,100 to 250,≤ 250,Cc1cc(C(=O)N(C)C)ncc1-c1cnc(NCc2c(F)ccc3c2CCO3)c2cnncc12 [Example 4]
≤ 100,> 250,≤ 250,Cc1c(-c2cnc(NCc3c(F)ccc4c3CCO4)c3cnncc23)ccc(CN(C)C)c1F [Example 5]
≤ 100,< 100,≤ 250,Cc1cc(CN(C)C)ccc1-c1cnc(NCc2c(F)ccc3c2CCO3)c2cnncc12 [Example 6]
≤ 100,< 100,≤ 250,CNS(=O)(=O)c1ccc(-c2cnc(NCc3c(F)ccc4c3CCO4)c3cnncc23)cc1 [Example 7]
≤ 100,< 100,≤ 250,CN(C)S(=O)(=O)c1ccc(-c2cnc(NCc3c(F)ccc4c3CCO4)c3cnncc23)cc1 [Example 8]
≤ 100,100 to 250,≤ 250,CN(C)C(=O)c1ccc(-c2cnc(NCc3c(F)ccc4c3CCO4)c3cnncc23)cc1 [Example 9]
≤ 100,< 100,≤ 250,CN(C)S(=O)(=O)c1ccc(-c2cnc(NCc3c(F)ccc4c3CCO4)c3cnncc23)cn1 [Example 10]
≤ 100,< 100,≤ 250,Cc1ncccc1-c1cnc(NCc2c(F)ccc3c2CCO3)c2cnncc12 [Example 11]
≤ 100,< 100,≤ 250,Cc1cc(-c2cnc(NCc3c(F)ccc4c3CCO4)c3cnncc23)ccn1 [Example 12]
≤ 100,< 100,≤ 250,Cc1cc(-c2cnc(NCc3c(F)ccc4c3CCO4)c3cnncc23)n(C)n1 [Example 13]
≤ 100,< 100,≤ 250,CN(C)Cc1ccc(-c2cnc(NCc3c(F)ccc4c3CCO4)c3cnncc23)cc1F [Example 14]
≤ 100,< 100,≤ 250,"CN(C)C(=O)c1cc(-c2cnc(NCc3c(F)ccc4c3CCO4)c3cnncc23)n(C)n1 [Example 15, 5-(5-(((5-fluoro-2,3-dihydrobenzofuran-4-yl)methyl)amino)pyrido[3,4-d]pyridazin-8-yl)-N,N,1-trimethyl-1H-pyrazole-3-carboxamide]"
≤ 100,< 100,≤ 250,"Cn1nc(C#N)cc1-c1cnc(NCc2c(F)ccc3c2CCO3)c2cnncc12 [Example 16, 5-(5-(((5-fluoro-2,3-dihydrobenzofuran-4-yl)methyl)amino)pyrido[3,4-d]pyridazin-8-yl)-1-methyl-1H-pyrazole-3-carbonitrile]"
≤ 100,< 100,≤ 250,"CN1CCc2cc(-c3cnc(NCc4c(F)ccc5c4CCO5)c4cnncc34)ccc2C1 [Example 17, N-((5-fluoro-2,3-dihydrobenzofuran-4-yl)methyl)-8-(2-methyl-1,2,3,4-tetrahydroisoquinolin-6-yl)pyrido[3,4-d]pyridazin-5-amine]"
100 to 500,> 250,≤ 250,"CN(C)CCn1nccc1-c1cnc(NCc2c(F)ccc3c2CCO3)c2cnncc12 [Example 18, 8-(1-(2-(dimethylamino)ethyl)-1H-pyrazol-5-yl)-N-((5-fluoro-2,3-dihydrobenzofuran-4-yl)methyl)pyrido[3,4-d]pyridazin-5-amine]"
≤ 100,< 100,≤ 250,"CNCc1ccc(-c2cnc(NCc3c(F)ccc4c3CCO4)c3cnncc23)c(C)c1 [Example 19, N-((5-fluoro-2,3-dihydrobenzofuran-4-yl)methyl)-8-(2-methyl-4-((methylamino)methyl)phenyl)pyrido[3,4-d]pyridazin-5-amine]"
–,100 to 250,–,"CCOc1cc2c(-c3cc(C)nn3C)cnc(NCc3c(F)ccc4c3CCO4)c2cn1 [Example 42, 4-(1,3-dimethyl-1H-pyrazol-5-yl)-6-ethoxy-N-((5-fluoro-2,3-dihydrobenzofuran-4-yl)methyl)-2,7-naphthyridin-1-amine]"
